Assay results as given in the supplement of paper PMC10307832.

Compound: Cc1ccc(NC(=O)c2ccc(CN3CCN(C)CC3)cc2)cc1Nc1nccc(-c2cccnc2)n1 [Imatinib] + C[C@]1(O)C[C@@H](c2nc(-c3ccc4ccc(-c5ccccc5)nc4c3)c3c(N)nccn32)C1 [Linsitinib] (partner 1 µM)
Assay: relative viability (nuclei count vs DMSO), 5 days (fraction); higher = more cells survive
In short: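 Medians of duplicate plates are given as relative viability. That measure is the nuclei count in treated wells divided by the count in vehicle wells. Counts were taken on 4× images of lung cancer cell lines in 1536-well plates, 5 days after pin-tool dosing the day after seeding with one drug alone or a fixed anchor-drug dose plus five library-drug doses (not always all listed) in √10 steps.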

| Cell Line | relative viability (first compound 0.02 µM) | relative viability (first compound 0.2 µM) | relative viability (first compound 0.6325 µM) | relative viability (first compound 2 µM) | relative viability (first compound 0.06325 µM) |
| --- | --- | --- | --- | --- | --- |
| 201T | 1.03 | 1.03 | 1.03 | 0.957 | – |
| A-427 | 1.11 | 1.11 | 1.17 | 1.08 | – |
| ABC-1 | 0.727 | 0.778 | 0.849 | 0.779 | – |
| BEN | 0.908 | 0.921 | 0.837 | 0.969 | 0.785 |
| CAL-12T | 0.908 | 0.996 | 0.982 | 0.788 | 0.877 |
| COR-L23 | 1.14 | 1.18 | 0.895 | 1.04 | 1.01 |
| COR-L 105 | 1.08 | 1 | 1.02 | 0.978 | 1.14 |
| Calu-6 | 0.993 | 1.07 | 0.967 | 1.04 | 0.997 |
| EKVX | 1.09 | 0.968 | 1.02 | 1.12 | – |
| EMC-BAC-2 | 0.845 | 0.889 | 0.767 | 0.868 | 0.961 |
| EPLC-272H | 1.28 | 1.24 | 1.23 | 1.02 | – |
| H3255 | 1.06 | 0.877 | 0.965 | 0.998 | 0.921 |
| HARA | 1.16 | 1.05 | 0.994 | 0.969 | 0.906 |
| HCC-15 | 0.82 | 0.926 | – | 0.867 | 0.917 |
| HCC-44 | 0.801 | 0.664 | 0.549 | 0.646 | – |
| HCC-78 | 0.444 | 0.563 | 0.524 | 0.576 | 0.528 |
| HCC-366 | 0.685 | 1.02 | 0.692 | 0.844 | – |
| HCC-827 | 1.02 | – | 0.98 | 0.897 | 0.96 |

| Cell Line | relative viability (first compound 0.02 µM) | relative viability (first compound 0.2 µM) | relative viability (first compound 0.6325 µM) | relative viability (first compound 2 µM) | relative viability (first compound 0.06325 µM) |
| --- | --- | --- | --- | --- | --- |
| HOP-62 | 1.12 | – | 0.953 | 0.857 | – |
| IA-LM | 0.688 | 0.561 | 1.38 | 0.593 | 0.652 |
| LC-2-ad | 0.838 | 0.896 | 0.825 | 0.84 | 0.875 |
| LCLC-97TM1 | – | 0.204 | 0.179 | 0.184 | – |
| LCLC-103H | – | 1.08 | 1.03 | – | – |
| LK-2 | 0.614 | 0.739 | 0.222 | 0.689 | 0.427 |
| LOU-NH91 | 0.993 | 0.996 | 0.869 | 0.87 | 0.964 |
| LU99A | 0.53 | 0.654 | 0.611 | 0.615 | 0.543 |
| LXF-289 | 1.03 | 1.08 | 0.892 | 0.935 | 1.05 |
| NCI-H23 | 0.535 | 0.588 | 0.546 | 0.598 | 0.641 |
| NCI-H322M | 1.01 | – | 0.891 | 0.981 | 0.895 |
| NCI-H358 | 0.726 | 0.851 | 0.669 | 0.863 | – |
| NCI-H441 | 0.644 | 0.573 | 0.47 | 0.546 | 0.485 |
| NCI-H460 | 1.11 | 0.964 | 0.801 | 1.02 | – |
| NCI-H520 | 1.09 | 1.02 | 1.14 | 0.988 | 1.48 |
| NCI-H596 | 1.09 | 1.1 | – | 0.969 | 0.958 |
| NCI-H647 | 1.43 | 1.25 | 1.13 | 1.18 | 1.44 |
